The source of these data is patent publication US11701332B2, “Methods and compositions for treating female sexual interest and arousal disorder” (priority 2020, dated 2023).

For series [1] the following is noted: in vivo; cited from earlier work.
The subject of series [2] is libido. The following applies: after injection; cited from earlier work.
Series [3] has as its target peripheral androgen receptors (AR) (Homo sapiens, UniProt P10275). The following applies: 450 mg darolutamide twice daily, person. As for the experimental part:
A person diagnosed with FSIAD is administered a 30 mg testosterone enanthate injection weekly, and a dose of 450 mg of darolutamide twice daily to achieve partial (90%) AR blockage peripherally, rather than total (100%) AR blockage.

The conditions of series [4]: in vivo; cited from earlier work. This is another data set of the same source.
For series [5] the following is noted: cited from earlier work.
Series [6] deals with libido. The settings on record: biological women receiving testosterone as part of gender transition therapy; cited from earlier work.
For series [7], the system named is libido. The settings on record: sublingual testosterone, short testosterone spike; cited from earlier work.

peripheral androgen receptors (AR), sequence (P10275 whole entry): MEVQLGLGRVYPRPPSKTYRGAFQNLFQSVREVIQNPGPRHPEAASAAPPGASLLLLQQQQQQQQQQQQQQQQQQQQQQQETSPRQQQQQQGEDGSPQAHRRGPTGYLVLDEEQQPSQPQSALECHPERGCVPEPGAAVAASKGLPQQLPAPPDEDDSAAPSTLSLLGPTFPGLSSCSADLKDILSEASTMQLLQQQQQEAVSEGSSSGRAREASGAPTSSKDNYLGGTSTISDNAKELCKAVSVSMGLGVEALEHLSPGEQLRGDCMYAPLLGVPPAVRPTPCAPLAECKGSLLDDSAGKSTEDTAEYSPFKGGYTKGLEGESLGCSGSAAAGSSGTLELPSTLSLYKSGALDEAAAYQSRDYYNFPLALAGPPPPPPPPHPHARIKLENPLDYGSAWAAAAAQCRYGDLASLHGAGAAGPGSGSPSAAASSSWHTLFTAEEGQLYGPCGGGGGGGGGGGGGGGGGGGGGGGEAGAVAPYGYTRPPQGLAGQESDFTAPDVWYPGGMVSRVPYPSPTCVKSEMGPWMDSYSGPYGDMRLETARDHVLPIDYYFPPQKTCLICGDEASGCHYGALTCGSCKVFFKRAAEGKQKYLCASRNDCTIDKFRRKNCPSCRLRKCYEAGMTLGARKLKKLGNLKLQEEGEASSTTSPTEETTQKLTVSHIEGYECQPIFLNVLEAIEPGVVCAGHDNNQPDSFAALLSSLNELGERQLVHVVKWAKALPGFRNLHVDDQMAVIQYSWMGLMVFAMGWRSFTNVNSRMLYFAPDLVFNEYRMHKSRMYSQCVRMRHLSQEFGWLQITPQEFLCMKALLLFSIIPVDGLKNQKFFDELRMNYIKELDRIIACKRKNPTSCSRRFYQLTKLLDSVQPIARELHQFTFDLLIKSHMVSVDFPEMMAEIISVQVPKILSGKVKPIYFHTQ

For `CC(O)(CS(=O)(=O)c1ccc(F)cc1)C(=O)Nc1ccc(C#N)c(C(F)(F)F)c1` (stereo not drawn) [bicalutamide], the “crossing of the blood-brain barrier” value in series [1] was “do not cross the blood-brain barrier”. Regarding `CCCC[C@H](NC(C)=O)C(=O)N[C@H]1CC(=O)NCCCC[C@@H](C(=O)O)NC(=O)[C@H](Cc2c[nH]c3ccccc23)NC(=O)[C@H](CCCN=C(N)N)NC(=O)[C@@H](Cc2ccccc2)NC(=O)[C@H](Cc2cnc[nH]2)NC1=O` [bremelanotide], the libido boost entry in series [2] was “temporary libido boost shortly after injection”.

Take `CC(O)c1cc(C(=O)N[C@@H](C)Cn2ccc(-c3ccc(C#N)c(Cl)c3)n2)[nH]n1` (stereo partly drawn) [darolutamide]: the “crossing of the blood-brain barrier” value in series [1] is given as “do not cross the blood-brain barrier”. In series [3], this compound returned an AR blockage peripherally of 90%. Moreover, the adverse effects entry in series [4] was “does not cause major adverse effects”. For `O=c1[nH]c2ccccc2n1CCN1CCN(c2cccc(C(F)(F)F)c2)CC1` [flibanserin], the adverse effects entry in series [4] is given as “low blood pressure”. In the case of `C[C@H]1CC(=O)C[C@@H]2CC[C@H]3[C@@H]4CC[C@H](O)[C@@]4(C)CC[C@@H]3[C@]21C` [mesterolone], in series [5], the oral bioavailability is on record as 3%. For `C[C@]12CC[C@H]3[C@@H](CCC4=CC(=O)CC[C@@]43C)[C@@H]1CC[C@@H]2O` [testosterone], in series [6], the “women reporting an increase in libido” value is recorded as 71%. In addition, in series [7], the “time until libido boost” value was 3.5 h.
